Experimental data published in the supplement of paper PMC10307832.

Key:
Assay in all cases: relative viability (nuclei count vs DMSO), 5 days (fraction); higher = more cells survive
[1] = system: LC-2-ad
Outline: (§1)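 Cells from lung cancer lines were seeded into 1536-well plates and, one day later, dosed by pin tool. Treatments were either a single drug or a fixed dose of an anchor drug with five library-drug doses (not always all listed) in √10 steps. After 5 days, nuclei were stained in a one-step fixation (final 0.05% Triton X-100, 1% formaldehyde, 1 ug/ml Hoechst) and counted on 4× images, and relative viability is the treated-to-vehicle nuclei ratio, as the median of duplicate plates.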

[2] = system: NCI-H522
Outline: as §1

[3] = system: NCI-H358
Outline: as §1

[4] = system: RERF-LC-KJ
Outline: as §1

[5] = system: NCI-H647
Outline: as §1

[6] = system: NCI-H1915
Outline: as §1

[7] = system: HCC-15
Outline: as §1

[8] = system: NCI-H1755
Outline: as §1

[9] = system: HCC-78
Outline: as §1

[10] = system: NCI-H460
Outline: as §1

[11] = system: NCI-H1975
Outline: as §1

[12] = system: A-427
Outline: as §1

[13] = system: PC-3 [JPC-3]
Outline: as §1

[14] = system: NCI-H2342
Outline: as §1

[15] = system: LOU-NH91
Outline: as §1

[16] = system: NCI-H1734
Outline: as §1

[17] = system: LXF-289
Outline: as §1

[18] = system: NCI-H1792
Outline: as §1

[19] = system: HOP-62
Outline: as §1

[20] = system: NCI-H2347
Outline: as §1

[21] = system: NCI-H2126
Outline: as §1

For `COc1cc(N2CCC(C(N)=O)CC2)ccc1Nc1nc(N)c(Cl)c(Nc2ccccc2S(=O)(=O)C(C)C)n1` [HG-5-88-01] + NC(=O)Nc1cc(-c2cccc(F)c2)sc1C(=O)N[C@H]1CCCNC1 [AZD7762] (partner 0.2 µM), which relative viability ([1]; first compound 0.04 µM) is on record?
Its relative viability is 0.888.

What about the relative viability ([1]; first compound 0.1265 µM) of the same compound?
Its relative viability is 0.76.

What about the relative viability ([1]; first compound 0.4 µM) of the same compound?
The relative viability was 0.787.

And the relative viability ([1]; first compound 1.265 µM)?
The relative viability was 0.857.

And the relative viability ([1]; first compound 4 µM)?
The relative viability was 0.87.

And the relative viability ([2]; first compound 0.04 µM)?
The relative viability was 0.795.

And the relative viability ([2]; first compound 0.1265 µM)?
Its relative viability is 0.842.

And the relative viability ([2]; first compound 0.4 µM)?
The relative viability was 0.779.

What about the relative viability ([2]; first compound 1.265 µM) of the same compound?
Its relative viability is 0.846.

What about the relative viability ([2]; first compound 4 µM) of the same compound?
The relative viability was 0.681.

And the relative viability ([3]; first compound 0.04 µM)?
The relative viability was 0.498.

And the relative viability ([3]; first compound 0.1265 µM)?
Its relative viability is 0.503.

And the relative viability ([3]; first compound 0.4 µM)?
Its relative viability is 0.451.

What about the relative viability ([3]; first compound 1.265 µM) of the same compound?
Its relative viability is 0.223.

And the relative viability ([3]; first compound 4 µM)?
The relative viability was 0.245.

And the relative viability ([4]; first compound 0.04 µM)?
Its relative viability is 0.995.

What about the relative viability ([4]; first compound 0.1265 µM) of the same compound?
The relative viability was 1.07.

And the relative viability ([4]; first compound 0.4 µM)?
Its relative viability is 0.979.

What about the relative viability ([4]; first compound 1.265 µM) of the same compound?
Its relative viability is 0.747.

And the relative viability ([4]; first compound 4 µM)?
Its relative viability is 0.563.

What about the relative viability ([5]; first compound 0.04 µM) of the same compound?
Its relative viability is 0.455.

And the relative viability ([5]; first compound 0.1265 µM)?
Its relative viability is 0.405.

What about the relative viability ([5]; first compound 0.4 µM) of the same compound?
Its relative viability is 0.472.

And the relative viability ([5]; first compound 1.265 µM)?
Its relative viability is 0.394.

And the relative viability ([5]; first compound 4 µM)?
The relative viability was 0.433.

What about the relative viability ([6]; first compound 0.04 µM) of the same compound?
Its relative viability is 0.69.

What about the relative viability ([6]; first compound 0.1265 µM) of the same compound?
The relative viability was 0.697.

What about the relative viability ([6]; first compound 0.4 µM) of the same compound?
The relative viability was 0.689.

And the relative viability ([6]; first compound 1.265 µM)?
The relative viability was 0.741.

And the relative viability ([6]; first compound 4 µM)?
Its relative viability is 0.463.

And the relative viability ([7]; first compound 0.04 µM)?
Its relative viability is 1.27.

What about the relative viability ([7]; first compound 0.1265 µM) of the same compound?
Its relative viability is 0.595.

And the relative viability ([7]; first compound 0.4 µM)?
The relative viability was 1.15.

And the relative viability ([7]; first compound 1.265 µM)?
The relative viability was 1.3.

What about the relative viability ([7]; first compound 4 µM) of the same compound?
The relative viability was 1.04.

And the relative viability ([8]; first compound 0.04 µM)?
Its relative viability is 0.465.

And the relative viability ([8]; first compound 0.1265 µM)?
The relative viability was 0.476.

And the relative viability ([8]; first compound 0.4 µM)?
The relative viability was 0.419.

And the relative viability ([8]; first compound 1.265 µM)?
Its relative viability is 0.449.

What about the relative viability ([8]; first compound 4 µM) of the same compound?
The relative viability was 0.516.

And the relative viability ([9]; first compound 0.04 µM)?
Its relative viability is 0.576.

And the relative viability ([9]; first compound 0.1265 µM)?
The relative viability was 0.553.

What about the relative viability ([9]; first compound 0.4 µM) of the same compound?
Its relative viability is 0.472.

And the relative viability ([9]; first compound 1.265 µM)?
Its relative viability is 0.361.

What about the relative viability ([9]; first compound 4 µM) of the same compound?
Its relative viability is 0.364.

What about the relative viability ([10]; first compound 0.04 µM) of the same compound?
The relative viability was 0.7.

And the relative viability ([10]; first compound 0.1265 µM)?
Its relative viability is 0.63.

What about the relative viability ([10]; first compound 0.4 µM) of the same compound?
The relative viability was 0.561.

What about the relative viability ([10]; first compound 1.265 µM) of the same compound?
Its relative viability is 0.611.

And the relative viability ([10]; first compound 4 µM)?
Its relative viability is 0.592.

And the relative viability ([11]; first compound 0.04 µM)?
The relative viability was 0.757.

And the relative viability ([11]; first compound 0.1265 µM)?
Its relative viability is 0.756.

And the relative viability ([11]; first compound 0.4 µM)?
The relative viability was 0.603.

What about the relative viability ([11]; first compound 1.265 µM) of the same compound?
Its relative viability is 0.328.

What about the relative viability ([11]; first compound 4 µM) of the same compound?
Its relative viability is 0.348.

And the relative viability ([12]; first compound 0.04 µM)?
Its relative viability is 0.67.

What about the relative viability ([12]; first compound 0.1265 µM) of the same compound?
Its relative viability is 0.776.

And the relative viability ([12]; first compound 0.4 µM)?
Its relative viability is 0.744.

What about the relative viability ([12]; first compound 1.265 µM) of the same compound?
Its relative viability is 0.656.

And the relative viability ([12]; first compound 4 µM)?
Its relative viability is 0.679.

And the relative viability ([13]; first compound 0.04 µM)?
The relative viability was 0.863.

What about the relative viability ([13]; first compound 0.1265 µM) of the same compound?
The relative viability was 0.703.

What about the relative viability ([13]; first compound 0.4 µM) of the same compound?
The relative viability was 0.732.

And the relative viability ([13]; first compound 1.265 µM)?
Its relative viability is 0.713.

What about the relative viability ([13]; first compound 4 µM) of the same compound?
Its relative viability is 0.344.

And the relative viability ([14]; first compound 0.04 µM)?
The relative viability was 0.47.

What about the relative viability ([14]; first compound 0.1265 µM) of the same compound?
The relative viability was 0.489.

And the relative viability ([14]; first compound 0.4 µM)?
The relative viability was 0.447.

And the relative viability ([14]; first compound 4 µM)?
The relative viability was 0.408.

And the relative viability ([15]; first compound 0.04 µM)?
Its relative viability is 0.809.

And the relative viability ([15]; first compound 0.1265 µM)?
Its relative viability is 0.677.

What about the relative viability ([15]; first compound 0.4 µM) of the same compound?
Its relative viability is 0.649.

What about the relative viability ([15]; first compound 1.265 µM) of the same compound?
Its relative viability is 0.551.

What about the relative viability ([15]; first compound 4 µM) of the same compound?
The relative viability was 0.514.

And the relative viability ([16]; first compound 0.04 µM)?
Its relative viability is 0.515.

What about the relative viability ([16]; first compound 0.1265 µM) of the same compound?
The relative viability was 0.514.

And the relative viability ([16]; first compound 0.4 µM)?
Its relative viability is 0.52.

And the relative viability ([16]; first compound 1.265 µM)?
The relative viability was 0.511.

And the relative viability ([16]; first compound 4 µM)?
The relative viability was 0.724.

And the relative viability ([17]; first compound 0.04 µM)?
The relative viability was 1.11.

And the relative viability ([17]; first compound 0.1265 µM)?
The relative viability was 1.05.

What about the relative viability ([17]; first compound 0.4 µM) of the same compound?
Its relative viability is 1.06.

And the relative viability ([17]; first compound 1.265 µM)?
The relative viability was 1.12.

And the relative viability ([17]; first compound 4 µM)?
Its relative viability is 1.11.

And the relative viability ([18]; first compound 0.04 µM)?
The relative viability was 0.752.

And the relative viability ([18]; first compound 0.1265 µM)?
The relative viability was 0.648.

And the relative viability ([18]; first compound 0.4 µM)?
The relative viability was 0.645.

What about the relative viability ([18]; first compound 1.265 µM) of the same compound?
The relative viability was 0.581.

What about the relative viability ([18]; first compound 4 µM) of the same compound?
Its relative viability is 0.557.

What about the relative viability ([19]; first compound 0.04 µM) of the same compound?
The relative viability was 0.463.

What about the relative viability ([19]; first compound 0.1265 µM) of the same compound?
Its relative viability is 0.736.

What about the relative viability ([19]; first compound 0.4 µM) of the same compound?
Its relative viability is 0.654.

And the relative viability ([19]; first compound 1.265 µM)?
Its relative viability is 0.55.

And the relative viability ([19]; first compound 4 µM)?
Its relative viability is 0.584.

What about the relative viability ([20]; first compound 0.04 µM) of the same compound?
Its relative viability is 0.881.

What about the relative viability ([20]; first compound 0.1265 µM) of the same compound?
The relative viability was 0.9.

What about the relative viability ([20]; first compound 0.4 µM) of the same compound?
Its relative viability is 0.82.

What about the relative viability ([20]; first compound 1.265 µM) of the same compound?
The relative viability was 0.718.

And the relative viability ([20]; first compound 4 µM)?
Its relative viability is 0.804.

What about the relative viability ([21]; first compound 0.04 µM) of the same compound?
The relative viability was 0.985.

And the relative viability ([21]; first compound 0.1265 µM)?
Its relative viability is 1.05.

What about the relative viability ([21]; first compound 0.4 µM) of the same compound?
Its relative viability is 0.961.

And the relative viability ([21]; first compound 1.265 µM)?
Its relative viability is 1.05.

And the relative viability ([21]; first compound 4 µM)?
Its relative viability is 0.828.
